Experimental data from patent US20090239901A1, “METHOD AND COMPOSITIONS FOR TREATMENT OF CEREBRAL MALARIA” (priority 2008, published 2009).

Columns and labels:
Janus kinase 2 (Jak2) = experiment: attenuation of Compound A effects by Jak2 inhibitor; settings: both in vitro and in vivo
Excerpt: (§1) All of these events were reported to be important in the development of Cerebral Malaria (CM).

TNF = TNF expression
Excerpt: as §1

ICAM-1 = experiment: TNFα-induced production of ICAM-1 in human brain microvascular endothelial cells; format: cell-based; settings: TNF-treated human brain microvascular endothelial cells (MVECs)
Excerpt: as §1

VCAM-1 = experiment: TNFα-induced production of VCAM-1 in human brain microvascular endothelial cells; format: cell-based; settings: TNF-treated human brain microvascular endothelial cells (MVECs)
Excerpt: as §1

hippocampal neurogenesis = hippocampal neurogenesis in vivo; settings: 1 week treatment, 2H2O label
microglia = experiment: LPS-induced microglial inflammation in vivo; settings: LPS 1 mg/kg i.p. on days 1, 3 and 5
Description: Animals were treated with either vehicle and 8% 2H2O label for 1 week. LPS (1 mg/kg, i.p) was injected on days 1, 3 and 5 of drug treatment and label. Microglia were isolated from brain and sorted by flow cytometry as CD11b+, F4/80+ cells. DNA was isolated from sorted microglia cells, hydrolyzed and derivatized for GC/MS analyses.

[1] = tested on: more than 60 receptors and enzymes
sepsis-induced death = sepsis-induced death in rodents (survival study); format: in vivo
Description: FIG. 5 is a graph showing results of a study that indicates α7 agonists can prevent sepsis-induced death in rodents. Survival was monitored daily from day 0 to day 6. In the vehicle control group there was a 13% survival by day 6. In the animals treated with 0.003 mg/kg Compound B, there was a 13% survival by day (NS, p=0.360). In the animals treated with 0.03 mg/kg Compound B, there was also a 13% survival by day (NS, p=0.528). […] Survival was 47% in this group, a significant improvement in survival (p=0.005).

N#C/C(=C/c1ccc(O)c(O)c1)C(=O)NCc1ccccc1 [AG-490]
effect on the effects of Compound A (Janus kinase 2 (Jak2)): attenuates the effects of Compound A

Cc1ccc(C(=O)N[C@@H]2C3CCN(CC3)[C@H]2Cc2cccnc2)s1 [Compound A, (2S,3R)-N-(2-((3-pyridinyl)methyl)-1-azabicyclo[2.2.2]oct-3-yl)-5-methylthiophene-2-carboxamide]
TNF expression (TNF): significantly inhibits TNF expression | levels of ICAM-1 expression (ICAM-1): decreases the levels of ICAM-1 and VCAM-1 expression | levels of VCAM-1 expression (VCAM-1): decreases the levels of ICAM-1 and VCAM-1 expression | hippocampal neurogenesis (hippocampal neurogenesis): promotes hippocampal neurogenesis in vivo | microglial inflammation (microglia): prevents microglial inflammation in vivo | separation with other targets [1]: 100-1000

O=C(N[C@@H]1C2CCN(CC2)[C@H]1Cc1cccnc1)c1cc2ccccc2o1 [Compound B, (2S,3R)-N-(2-((3-pyridinyl)methyl)-1-azabicyclo[2.2.2]oct-3-yl)benzofuran-2-carboxamide]
survival by day 6 (sepsis-induced death; 0.003 mg/kg, NS, p=0.360, vehicle control 13%): 13% | survival by day 6 (sepsis-induced death; 0.03 mg/kg, NS, p=0.528, vehicle control 13%): 13% | survival by day 6 (sepsis-induced death; 0.3 mg/kg, p=0.005, vehicle control 13%): 47%
